{"source": "paper PMC11992225", "about": "“Antibacterial compounds against non-growing and intracellular bacteria” (npj Antimicrobials and Resistance, 2025)", "system": "non-growing UPEC CFT073", "assay": "Time-dependent effects of drug treatment on regrowth, UPEC", "type": "cell-based, Escherichia coli", "settings": "E. coli, 10 µM, OD600 6 h after dilution", "method": "For screening and concentration-dependent characterization of the hit compounds, we used a 24-h incubation to capture their effects, although the actual onset of their activity may occur much sooner. To assess the speed of action, we treated stationary-phase cultures of three organisms with compounds that had previously shown a strong regrowth delay at 10 µM. We selected compounds that, in earlier tests, strongly delayed regrowth, such that diluted cultures remained below an OD600 of 0.12 (indicating no growth) after 6 h for UPEC or 8 h for P. aeruginosa and S. aureus in drug-free medium.\nWe collected samples at different times during the 24-h incubation, diluted them 2500-fold, and measured the OD600 after 6 or 8 h of further incubation, respectively. […] Rifampicin acts quickly against non-growing S. aureus, while the effects of the other compounds increase gradually during incubation but are already apparent within the first hour of treatment.\nBacteria were cultivated in 1:4 diluted CA-MHB (40 mM HEPES, pH 7.4) for 24 h. Aliquots were dispensed into a 96-well plate, and compounds were added at a 10 µM concentration. […] The OD600 of the samples was measured to assess regrowth using a microplate reader (BioTek Synergy H1) after 6 h for UPEC and 8 h for P. aeruginosa and S. aureus. […]", "data": [{"smiles": "C[C@H]1NCc2cc(-c3ccc4c(=O)c(C(=O)O)cn(C5CC5)c4c3OC(F)F)ccc21", "note": "[Garenoxacin]", "values": [{"measurement": "speed of action: regrowth delay over treatment time", "value": "act more slowly"}]}]}
